We go through 17 molecules from US10844044B2 (Vanderbilt University, priority 2018, dated 2020).

By Ki is commonly meant the dissociation constant of the complex between target and ligand, obtained from inhibition or displacement.

Read-outs that look alike come from different tables or passages of the source. Where only a bound is given, the exact number is not on record here.

For test [1], the system named is MV4:11 human cancer cell lines. Nature of the test: Anti-proliferative activity, CellTiter-Glo viability assay, 7 day protocol. In kind it is cell-based. The following applies: Homo sapiens, MV4-11, 168 h, MV4:11 cells, 7 day incubation, read-out: GI50 on cellular proliferation of MV4:11 human cancer cell lines. In outline: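 MV4:11 cells seeded at 3600 cells/ml and exposed to compounds for 7 days, 0.1% DMSO final. Viability measured by CellTiter-Glo luminescence. GI50 from three biological replicates, each in technical triplicate, given as mean ± S.E.M.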
(In ATP-based viability assays light output follows the ATP content of the culture.)

Test [2] addresses WDR5 (Homo sapiens (Human), UniProt P61964). The experiment in a line: TR-FRET binding assay (displacement of 10mer-Thr-FAM probe from WDR5). (Time-resolved FRET reads energy transfer from a long-lived donor to a nearby acceptor.)
The mark [3] stands for this setting: read-out: Ki for Inhibition of WDR5 by TR-FRET assay, TR-FRET, 10mer-Thr-FAM probe, WDR5-His tag 2 nM, pH 7.0.

Turning to `Cc1cc([C@@H](NC(=O)c2cc(Cn3ccn(C4CC4)c3=N)cc(-c3cn(C(C)C)nc3C(F)(F)F)c2)C2CC2)ccc1F` [Example 194, (S)—N-(Cyclopropyl(4-fluoro-3-methylphenyl)methyl)-3-((3-cyclopropyl-2-imino-2,3-dihydro-1H-imidazol-1-yl)methyl)-5-(1-isopropyl-3-(trifluoromethyl)-1H-pyrazol-4-yl)benzamide], in test [1], the GI50 is less than 100 nM. The Ki in test [2] (setting [3]) is less than 0.1 nM.
`Cc1cc([C@@H](NC(=O)c2cc(Cn3ccn(C)c3=N)cc(C(C)C(F)(F)F)c2)C2CC2)ccc1F` (stereo partly drawn) [Example 195, N—((S)-Cyclopropyl(4-fluoro-3-methylphenyl)methyl)-3-((2-imino-3-methyl-2,3-dihydro-1H-imidazol-1-yl)methyl)-5-(1,1,1-trifluoropropan-2-yl)benzamide]: in test [1], the GI50 amounted to 940 nM. In test [2] (setting [3]), the inhibition constant Ki is less than 0.1 nM.
Consider `Cc1cc([C@@H](NC(=O)c2cc(Cn3ccn(C)c3=N)cc(-c3cc(C(F)(F)F)nn3C)c2)C2CC2)ccc1F` [Example 196, (S)—N-(Cyclopropyl(4-fluoro-3-methylphenyl)methyl)-3-((2-imino-3-methyl-2,3-dihydro-1H-imidazol-1-yl)methyl)-5-(1-methyl-3-(trifluoromethyl)-1H-pyrazol-5-yl)benzamide], for which the GI50 in test [1] was less than 100 nM. For the same molecule, the Ki in test [2] (setting [3]) was less than 0.1 nM.
Consider `CCn1cc(-c2cc(Cn3ccn(C)c3=N)cc(C(=O)NCc3ccc(F)c(C)c3)c2)c(C(F)(F)F)n1` [Example 198, 3-(1-Ethyl-3-(trifluoromethyl)-1H-pyrazol-4-yl)-N-(4-fluoro-3-methylbenzyl)-5-((2-imino-3-methyl-2,3-dihydro-1H-imidazol-1-yl)methyl)benzamide], for which the GI50 in test [1] is less than 100 nM. The Ki in test [2] (setting [3]) is less than 0.1 nM.
`CCn1cc(-c2cc(Cn3ccn(C4CC4)c3=N)cc(C(=O)NCc3ccc(=O)n(C)c3)c2)c(C(F)(F)F)n1` [Example 199, 3-((3-Cyclopropyl-2-imino-2,3-dihydro-1H-imidazol-1-yl)methyl)-5-(1-ethyl-3-(trifluoromethyl)-1H-pyrazol-4-yl)-N-((1-methyl-6-oxo-1,6-dihydropyridin-3-yl)methyl)benzamide]: the GI50 in test [1] was 940 nM. Moreover, the Ki in test [2] (setting [3]) came to 0.3 nM.
The corresponding values for `CCn1cc(-c2cc(Cn3ccn(C)c3=N)cc(C(=O)NCc3ccc(=O)n(C)c3)c2)c(C(F)(F)F)n1` [Example 200, 3-(1-Ethyl-3-(trifluoromethyl)-1H-pyrazol-4-yl)-5-((2-imino-3-methyl-2,3-dihydro-1H-imidazol-1-yl)methyl)-N-((1-methyl-6-oxo-1,6-dihydropyridin-3-yl)methyl)benzamide] are 710 nM and 0.15 nM.
`Cc1cc([C@@H](NC(=O)c2cc(Cn3ccn(C)c3=N)cc(-c3ccccc3C)c2)C2CC2)ccc1F` [Example 201, (S)—N-(Cyclopropyl(4-fluoro-3-methylphenyl)methyl)-5-((2-imino-3-methyl-2,3-dihydro-1H-imidazol-1-yl)methyl)-2′-methyl-[1,1′-biphenyl]-3-carboxamide]: the GI50 in test [1] turned out to be 140 nM. Moreover, the Ki in test [2] (setting [3]) was less than 0.1 nM.
Regarding `CCn1cc(-c2cc(Cn3ccn(C4CC4)c3=N)cc(C(=O)N[C@H](c3ccc(F)c(Cl)c3)C3CC3)c2)c(C(F)(F)F)n1` [Example 202, (S)—N-((3-Chloro-4-fluorophenyl)(cyclopropyl)methyl)-3-((3-cyclopropyl-2-imino-2,3-dihydro-1H-imidazol-1-yl)methyl)-5-(1-ethyl-3-(trifluoromethyl)-1H-pyrazol-4-yl)benzamide], the GI50 in test [1] is less than 100 nM. Further, the Ki in test [2] (setting [3]) is less than 0.1 nM.
In the case of `Cc1cc([C@@H](NC(=O)c2cc(CN3CCN(C)C3=N)cc(-c3cn(C)nc3C(F)(F)F)c2)C2CC2)ccc1F` [Example 203, (S)—N-(cyclopropyl(4-fluoro-3-methylphenyl)methyl)-3-((2-imino-3-methylimidazolidin-1-yl)methyl)-5-(1-methyl-3-(trifluoromethyl)-1H-pyrazol-4-yl)benzamide], in test [1], the GI50 was less than 100 nM. For the same molecule, the inhibition constant Ki in test [2] (read-out: Ki for Inhibition of WDR5 by TR-FRET assay) was less than 0.1 nM.
As for `Cc1cc([C@@H](NC(=O)c2cc(Cn3ccn(C4CC4)c3=N)cc(-c3cn(C)nc3C(F)(F)F)c2)C2CC2)ncc1F` [Example 204, (S)—N-(Cyclopropyl(5-fluoro-4-methypyridin-2-yl)methyl)-3-((3-cyclopropyl-2-imino-2,3-dihydro-1H-imidazol-1-yl)methyl)-5-(1-methyl-3-(trifluoromethyl)-1H-pyrazol-4-yl)benzamide], the GI50 in test [1] is less than 100 nM. Further, in test [2] (setting [3]), the Ki is less than 0.1 nM.
For `Cc1cc([C@@H](NC(=O)c2cc(Cn3ccn(C)c3=N)cc(-c3cn(C)nc3C(F)(F)F)c2)C2CC2)ncc1F` [Example 205, (S)—N-(Cyclopropyl(5-fluoro-4-methylpyridin-2-yl)methyl)-3-((2-imino-3-methyl-2,3-dihydro-1H-imidazol-1-yl)methyl)-5-(1-methyl-3-(trifluoromethyl)-1H-pyrazol-4-yl)benzamide], in that order: less than 100 nM and less than 0.1 nM.
The corresponding values for `COc1cc([C@@H](NC(=O)c2cc(Cn3ccn(C)c3=N)cc(-c3cn(C)nc3C(F)(F)F)c2)C2CC2)ccc1F` [Example 207] are less than 100 nM and less than 0.1 nM.
Take `CCOc1c(C(=O)N[C@@H](C)c2ccc(F)c(C)c2)cc(Cn2ccn(C)c2=N)cc1-c1cn(C)nc1C(F)(F)F` [Example 209, (S)-2-Ethoxy-N-(1-(4-fluoro-3-methylphenyl)ethyl)-5-((2-imino-3-methyl-2,3-dihydro-1H-imidazol-1-yl)methyl)-3-(1-methyl-3-(trifluoromethyl)-1H-pyrazol-4-yl)benzamide]: the GI50 in test [1] was less than 100 nM. Besides, the inhibition constant Ki in test [2] (setting [3]) is less than 0.1 nM.
For `CCOc1c(C(=O)N[C@H](c2ccc(F)c(C)c2)C2CC2)cc(Cn2ccn(C)c2=N)cc1-c1cn(C)nc1C(F)(F)F` [Example 210, (S)—N-(Cyclopropyl(4-fluoro-3-methylphenyl)methyl)-2-ethoxy-5-((2-iminio-3-methyl-2,3-dihydro-1H-imidazol-1-yl)methyl)-3-(1-methyl-3-(trifluoromethyl)-1H-pyrazol-4-yl)benzamide], in that order: less than 100 nM and less than 0.1 nM.
Turning to `Cn1cc(-c2cc(Cn3ccn(C)c3=N)cc(C(=O)N[C@H](c3ccc(Cl)c(Cl)c3)C3CC3)c2)c(C(F)(F)F)n1` [Example 211], the GI50 in test [1] is less than 100 nM. Further, the Ki in test [2] (setting [3]) was less than 0.1 nM.
Turning to `CCn1cc(-c2cc(CN3CCN(C)C3=N)cc(C(=O)N[C@H](c3ccc(F)c(C)c3)C3CC3)c2)c(C(F)(F)F)n1` [Example 212, (S)—N-(Cyclopropyl(4-fluoro-3-methylphenyl)methyl)-3-(1-ethyl-3-(trifluoromethyl)-1H-pyrazol-4-yl)-5-((2-imino-3-methylimidazolidin-1-yl)methyl)benzamide], the GI50 in test [1] is less than 100 nM. Also, in test [2], the inhibition constant (Ki) is less than 0.1 nM.
As to `CCn1cc(-c2cc(CN3CCN(C)C3=N)cc(C(=O)N[C@H](c3ccc(F)c(F)c3)C3CC3)c2)c(C(F)(F)F)n1` [Example 213, (S)—N-(Cyclopropyl(3,4-difluorophenyl)methyl)-3-(1-ethyl-3-(trifluoromethyl)-1H-pyrazol-4-yl)-5-((2-imino-3-methylimidazolidin-1-yl)methyl)benzamide], in test [1], the GI50 is less than 100 nM. The molecule also showed a Ki in test [2] of less than 0.1 nM.
